US8708475B2, “Ultraviolet crosslinking inkjet ink, ink cartridge containing same, and image forming method and apparatus using same” (Ricoh Company, Ltd., priority 2010, dated 2014)
“Also recorded” adds a separate entry of the source. Read-outs that look alike come from different tables or passages of the source.

Assays:
[1] = described in the MSDS; cited from earlier work
mice [2] = conditions: mouse, in vivo
[3] = in vivo; cited from earlier work
mice [4] = test: LLNA method skin sensitization test (OECD Test Guideline 429), stimulation index from BrdU content of auricular lymph nodes; conditions: mouse, in vivo
[5] = maximization method, Contact Dermatitis 8 223-235 (1982); cited from earlier work

Row | Molecule | skin sensitization potential [5] | SI value, bound stated for listed methacrylates (mice [2]) | also measured
1 | CSc1ccc(C(=O)C(C)(C)N2CCOCC2)cc1 [2-Methyl-1-[4-(methylthio)phenyl]-2-morphorinopropane-1-one] |  |  | skin sensitization potential [1]: no skin sensitization potential; also recorded: pane-1-one (nega-
2 | C=C(C)C(=O)OCC(C)(C)COC(=O)C(=C)C [Neopentyl glycol dimethacrylate] |  |  | SI value, bound stated for listed methacrylates (mice [2]; female, 3 days): less than 3
3 | C=CC(=O)OCC(CC)(COC(=O)C=C)COC(=O)C=C [Trimethylolpropane triacrylate] |  |  | skin irritation potential (in words) [3]: high skin irritation potential
4 | C=C(C)C(=O)OCC(CC)(COC(=O)C(=C)C)COC(=O)C(=C)C [Trimethylolpropane trimethacrylate] |  |  | skin irritation potential (in words) [3]: low skin irritation potential; skin sensitization potential (in words) (mice [4]): low skin sensitization potential
5 | C=C(C)C(=O)OCCCCCC [n-Hexyl methacrylate] | negative skin sensitization potential | less than 3 | 
6 | C=C(C)C(=O)OCCCCC [n-Pentyl methacrylate] | negative skin sensitization potential | less than 3 | 
7 | C=C(C)C(=O)OC(C)(C)C [t-Butyl methacrylate] | negative skin sensitization potential | less than 3 | 
8 | Polyethylene glycol (400) dimethacrylate |  | less than 3 | 
9 | Polyethylene glycol (600) dimethacrylate |  | less than 3 | 
